Results taken from patent US8247541B2, “Plant compositions enriched in dehydrosoyasaponin I (D-I) and methods of producing such compositions” (Her Majesty the Queen in right of Canada, as represented by …, priority 2007, dated 2012).
Entries after “also recorded” stand apart in the source; their conditions may differ. Marks after values point to notes of the source that are not given here.

Key:
[1] = Light treatment of soyasaponin extracts/solutions followed by HPLC/ELSD (peak area ratio to internal standard alpha-hederin); type: physicochemical; details: 80% methanol; for D-I/D-I + S-I + S-VI / HPLC/ELSD component peak area to internal standard ratio, D-I / HPLC/ELSD component peak area to internal standard ratio, S-I / HPLC/ELSD component peak area to internal standard ratio, S-VI / HPLC/ELSD component peak area to internal standard ratio, total soyasaponins / HPLC/ELSD component peak area to internal standard ratio, unretained: 2 days fluorescent light
Description: HPLC and mass spectrometry. HP-20 MeOH samples (N=3) were prepared in 80% methanol at 8 mg/mL ( ? -hederin at 0.25 mg/mL) and syringe filtered (0.45 μm pore size, nylon membrane type, Chromatographic Specialties, Brockville, ON) into 0.25 mL glass autosampler vial inserts (Fisher no. 03-375-3A). The solutions were maintained at 15° C. before injection ([…] volume). The instrument consisted of an Alliance 2690 separations module (Waters Canada, Mississauga, ON) equipped with vacuum solvent degassing, a Waters 996 photodiode array detector (PDA) and a PL-EMD-960 evaporative light scattering detector (ELSD) (Polymer Laboratories, Amherst, Mass.) controlled by Waters Millennium software. Settings for the ELSD were attenuation=1, time constant=1 second, temperature=90°, PMT level=6 and airflow=4 liters/min. A reversed phase C-18 Symmetry™ column (3.0×150 mm, 5 μm particle size) purchased from Waters Canada and maintained at 30° C. was used. The mobile phase consisted of 0.05% trifluoroacetic acid (TFA) in water (solvent A) and 0.05% TFA in acetonitrile (solvent B), delivered at a flow rate of 0.4 mL/min. The gradient elution program consisted of 95% A and 5% B at time 0. After 10 min, the composition was 65% A and 35% B (linear, curve 6 gradient). At that time, the linear gradient progressed to 50% A and 50% B over 15 min and to 5% A-95% B over 5 min before reverting to 95% A and 5% B from 35 to 43 min. Mean values of the peak area ratios from single analysis of the three samples from each variety were reported. […]
To further investigate the possibility of S-VI undergoing visible-light-mediated phototransformation to D-I, a source of the unstable S-VI was required as well as other chromatographic fractions that might contain a photosensitizer. Starting with defatted Amit chickpea flour and with brief (minimal) exposure to visible laboratory light, we therefore isolated by the traditional hot methanol and Diaion HP-20 procedures (of Table 1) a dried HP-20 MeOH extract containing S-VI. The earlier-eluting aqueous methanol fractions (also isolated in powder form) were additionally obtained as a potential source of the photosensitizer, in addition to the chloroform extract from the defatting step. Three extraction and isolation experiments were completed (prep A, B and E). Aqueous methanol fractions (30% MeOH and <30% MeOH) containing non-saponin components (see example 7) were additionally available from an experiment on the same flour but these fractions had been isolated after exposure of the crude methanol extract to light (see Table 7).
Three concentrations of a 30% MeOH isolate were used for comparison (two concentrations were previously employed in Table 10). […] D-I to internal standard ratios were 3.3-4, equivalent to the ratios obtained in tests 3 and 4 with the aqueous methanol additions (see also trial 3 of Table 10).

[2] = Solubility of photosensitizer in extraction solvents; type: physicochemical
[3] = test system: stored product insect pests; details: D-I isolated from pea; cited from earlier work
[4] = target: calcium-dependent potassium channels (Homo sapiens, UniProt Q12791+Q16558); details: cited from earlier work
Chain of calcium-dependent potassium channels (Q12791 whole entry): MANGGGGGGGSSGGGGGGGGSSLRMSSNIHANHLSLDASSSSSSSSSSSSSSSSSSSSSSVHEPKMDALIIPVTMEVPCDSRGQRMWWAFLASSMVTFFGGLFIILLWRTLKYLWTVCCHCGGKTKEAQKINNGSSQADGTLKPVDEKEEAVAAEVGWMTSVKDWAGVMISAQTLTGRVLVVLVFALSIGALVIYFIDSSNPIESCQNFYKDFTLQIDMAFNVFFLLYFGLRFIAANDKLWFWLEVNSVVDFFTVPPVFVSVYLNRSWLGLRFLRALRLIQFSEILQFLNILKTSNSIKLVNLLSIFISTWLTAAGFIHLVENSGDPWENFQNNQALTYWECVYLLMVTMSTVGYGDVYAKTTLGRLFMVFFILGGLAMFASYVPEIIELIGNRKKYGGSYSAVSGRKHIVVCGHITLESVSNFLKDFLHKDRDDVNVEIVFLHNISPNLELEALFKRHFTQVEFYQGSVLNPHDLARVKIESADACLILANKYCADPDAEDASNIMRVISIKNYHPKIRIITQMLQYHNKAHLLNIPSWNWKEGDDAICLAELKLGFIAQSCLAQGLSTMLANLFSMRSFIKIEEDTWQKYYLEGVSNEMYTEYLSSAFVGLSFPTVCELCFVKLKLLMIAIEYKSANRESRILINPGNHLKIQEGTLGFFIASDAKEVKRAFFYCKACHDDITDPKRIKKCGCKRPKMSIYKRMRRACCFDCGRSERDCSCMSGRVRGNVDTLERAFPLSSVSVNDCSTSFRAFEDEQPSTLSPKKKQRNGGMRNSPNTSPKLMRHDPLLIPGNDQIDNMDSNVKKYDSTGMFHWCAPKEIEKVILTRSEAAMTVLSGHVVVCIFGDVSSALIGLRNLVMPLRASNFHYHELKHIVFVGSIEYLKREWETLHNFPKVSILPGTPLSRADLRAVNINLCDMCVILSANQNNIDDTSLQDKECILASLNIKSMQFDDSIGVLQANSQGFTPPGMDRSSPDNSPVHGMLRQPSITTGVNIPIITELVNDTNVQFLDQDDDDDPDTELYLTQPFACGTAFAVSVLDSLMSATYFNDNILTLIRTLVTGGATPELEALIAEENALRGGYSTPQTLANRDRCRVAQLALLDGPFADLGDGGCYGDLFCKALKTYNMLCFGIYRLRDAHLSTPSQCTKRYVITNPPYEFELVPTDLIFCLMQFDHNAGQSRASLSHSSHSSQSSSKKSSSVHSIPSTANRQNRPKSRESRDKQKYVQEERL
Chain of calcium-dependent potassium channels (Q16558 whole entry): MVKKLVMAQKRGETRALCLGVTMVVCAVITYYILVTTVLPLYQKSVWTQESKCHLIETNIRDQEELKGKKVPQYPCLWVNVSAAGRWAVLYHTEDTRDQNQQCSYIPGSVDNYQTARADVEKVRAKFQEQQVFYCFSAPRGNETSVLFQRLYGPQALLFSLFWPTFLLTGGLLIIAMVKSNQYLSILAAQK

[5] = potential photosensitizer 10 μM added to 100% MeOH fraction (3 mg) of Amit chickpea
[6] = potential photosensitizer 50 μM added to 100% MeOH fraction (3 mg) of Amit chickpea
[7] = potential photosensitizer 100 μM added to 100% MeOH fraction (3 mg) of Amit chickpea
[8] = potential photosensitizer 50 μM added to 100% MeOH (2.98 mg) + 30% MeOH (4.47-4.58 mg) fractions

Row | Molecule | D-I/D-I + S-I + S-VI [1, 5] | HPLC/ELSD component peak area to internal standard ratio, D-I [1, 5] | HPLC/ELSD component peak area to internal standard ratio, S-I [1, 5] | HPLC/ELSD component peak area to internal standard ratio, S-VI [1, 5] | HPLC/ELSD component peak area to internal standard ratio, total soyasaponins [1, 5] | HPLC/ELSD component peak area to internal standard ratio, unretained [1, 5] | D-I/D-I + S-I + S-VI [1, 6] | HPLC/ELSD component peak area to internal standard ratio, D-I [1, 6] | HPLC/ELSD component peak area to internal standard ratio, S-I [1, 6] | HPLC/ELSD component peak area to internal standard ratio, S-VI [1, 6] | HPLC/ELSD component peak area to internal standard ratio, total soyasaponins [1, 6] | HPLC/ELSD component peak area to internal standard ratio, unretained [1, 6] | D-I/D-I + S-I + S-VI [1, 7] | HPLC/ELSD component peak area to internal standard ratio, D-I [1, 7] | HPLC/ELSD component peak area to internal standard ratio, S-I [1, 7] | HPLC/ELSD component peak area to internal standard ratio, S-VI [1, 7] | HPLC/ELSD component peak area to internal standard ratio, total soyasaponins [1, 7] | HPLC/ELSD component peak area to internal standard ratio, unretained [1, 7] | further results
1 | Cc1cc2nc3c(=O)[nH]c(=O)nc-3n(C[C@H](O)[C@H](O)[C@H](O)COP(=O)(O)OP(=O)(O)OC[C@H]3O[C@@H](n4cnc5c(N)ncnc54)[C@H](O)[C@@H]3O)c2cc1C [FAD] | 0.3 | 3.3 | 6.8 | <0.003 | 10.1 | 5.1 | 0.4 | 3.0 | 5.5 | <0.003 | 8.6 | 5.6 | 0.4 | 2.8 | 4.0 | <0.003 | 6.7 | 6.9 | 
2 | Cc1cc2nc3c(=O)[nH]c(=O)nc-3n(C[C@H](O)[C@H](O)[C@H](O)CO)c2cc1C [riboflavin] |  |  |  |  |  |  |  |  |  |  |  |  |  |  |  |  |  |  | solubility in 80% methanol ([2]; 80% methanol): soluble; solubility in chloroform ([2]; chloroform): sparingly soluble
3 | Cc1cc2nc3c(=O)[nH]c(=O)nc-3n(C[C@H](O)[C@H](O)[C@H](O)COP(=O)(O)O)c2cc1C [FMN] | 0.3 | 3.3 | 6.5 | <0.003 | 9.9 | 4.8 | 0.4 | 2.9 | 4.5 | <0.003 | 7.4 | 5.1 | 0.5 | 1.8 | 0.3^f | <0.003 | 2.1 | 6.5 | 
4 | CC1=C(O)C(=O)C[C@H](O[C@@H]2CC(C)(C)C[C@H]3C4=CC[C@@H]5[C@@]6(C)CC[C@H](O[C@@H]7O[C@H](C(=O)O)[C@@H](O)[C@H](O)[C@H]7O[C@@H]7O[C@H](CO)[C@H](O)[C@H](O)[C@H]7O[C@@H]7O[C@@H](C)[C@H](O)[C@@H](O)[C@H]7O)[C@](C)(CO)[C@@H]6CC[C@@]5(C)[C@]4(C)CC[C@@]23C)O1 [S-VI, soyasaponin VI] |  |  |  |  |  |  |  |  |  |  |  |  |  |  |  |  |  |  | stability to fluorescent light ([1]; laboratory fluorescent light levels, room temperature, a few days): labile
5 | COc1c2ccoc2cc2oc(=O)ccc12 [bergapten] | 0.1 | 1.6 | 8.2 | 1.2 | 11.0 | 4.8 | 0.1 | 1.2 | 6.0 | 1.2 | 8.4 | 3.8 | 0.2 | 1.7 | 8.0 | 1.4 | 11.1 | 4.4 | D-I/D-I + S-I + S-VI [1, 8]: 0.3; HPLC/ELSD component peak area to internal standard ratio, D-I [1, 8]: 3.6; HPLC/ELSD component peak area to internal standard ratio, S-I [1, 8]: 7.4; HPLC/ELSD component peak area to internal standard ratio, S-VI [1, 8]: <0.003; HPLC/ELSD component peak area to internal standard ratio, total soyasaponins [1, 8]: 11.0; HPLC/ELSD component peak area to internal standard ratio, unretained [1, 8]: 70.7
6 | dehydrosoyasaponin I [D-I] |  |  |  |  |  |  |  |  |  |  |  |  |  |  |  |  |  |  | insecticidal and antifeedant properties [3]: insecticidal and antifeedant properties; activity on calcium-dependent (calcium-activated) potassium channels ([4]; D-I isolated from leaves of Desmodium adscendens): high-affinity activator; also recorded: potent calcium-activated potassium channel opener; potency as a potassium channel opener relative to S-I ([4]; compared with S-I): 60 fold
